In the supplement of paper PMC10307832:

What was measured:
Test in all cases: relative viability (nuclei count vs DMSO), 5 days (fraction); higher = more cells survive
201T = system: 201T
Outline: (§1)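 A single step with final 0.05% Triton X-100, 1% formaldehyde and 1 ug/ml Hoechst fixed the cells and stained nuclei 5 days after treatment. Lung cancer cell lines in 1536-well plates had been treated by pin tool the day after seeding with one drug alone or a fixed anchor-drug dose plus five library-drug doses (not always all listed) in √10 steps, and nuclei were counted on 4× images. Relative viability is the ratio of nuclei in treated wells to nuclei in vehicle wells, taken as the median of duplicate plates.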

BEN = system: BEN
Outline: as §1

EMC-BAC-2 = system: EMC-BAC-2
Outline: as §1

HARA = system: HARA
Outline: as §1

LCLC-103H = system: LCLC-103H
Outline: as §1

LOU-NH91 = system: LOU-NH91
Outline: as §1

NCI-H1395 = system: NCI-H1395
Outline: as §1

NCI-H1993 = system: NCI-H1993
Outline: as §1

NCI-H2023 = system: NCI-H2023
Outline: as §1

NCI-H2087 = system: NCI-H2087
Outline: as §1

`O=c1cc(-c2cccc3c2Sc2ccccc2S3)oc(N2CCOCC2)c1` + COc1cc2c(Oc3ccc(NC(=O)C4(C(=O)Nc5ccc(F)cc5)CC4)cc3F)ccnc2cc1OCCCN1CCOCC1 [Foretinib] (partner 0.25 µM) gave a relative viability (201T; first compound 0.08 µM) of 1.14, a relative viability (201T; first compound 0.253 µM) of 1.08 and a relative viability (201T; first compound 0.8 µM) of 0.787. For the same compound, the relative viability (201T; first compound 2.53 µM) was 1.06, the relative viability (201T; first compound 8 µM) was 1.01 and the relative viability (BEN; first compound 0.08 µM) was 0.485. The relative viability (BEN; first compound 0.253 µM) was 0.662, the relative viability (BEN; first compound 0.8 µM) was 0.674 and the relative viability (BEN; first compound 2.53 µM) was 0.578. For the same compound, the relative viability (BEN; first compound 8 µM) was 0.97, the relative viability (EMC-BAC-2; first compound 0.08 µM) was 0.998 and the relative viability (EMC-BAC-2; first compound 0.253 µM) was 0.987. The relative viability (EMC-BAC-2; first compound 0.8 µM) was 1, the relative viability (EMC-BAC-2; first compound 2.53 µM) was 1.03 and the relative viability (EMC-BAC-2; first compound 8 µM) was 1.12. For the same compound, the relative viability (HARA; first compound 0.08 µM) was 0.934, the relative viability (HARA; first compound 0.253 µM) was 0.956 and the relative viability (HARA; first compound 0.8 µM) was 0.961. It also gave a relative viability (HARA; first compound 2.53 µM) of 0.898, a relative viability (HARA; first compound 8 µM) of 0.777 and a relative viability (LCLC-103H; first compound 0.08 µM) of 0.721. It also gave a relative viability (LCLC-103H; first compound 0.253 µM) of 0.831, a relative viability (LCLC-103H; first compound 0.8 µM) of 0.794 and a relative viability (LCLC-103H; first compound 2.53 µM) of 0.71. For the same compound, the relative viability (LCLC-103H; first compound 8 µM) was 0.712, the relative viability (LOU-NH91; first compound 0.08 µM) was 0.976 and the relative viability (LOU-NH91; first compound 0.253 µM) was 0.906. The relative viability (LOU-NH91; first compound 0.8 µM) was 0.833, the relative viability (LOU-NH91; first compound 2.53 µM) was 0.838 and the relative viability (LOU-NH91; first compound 8 µM) was 0.967. It also gave a relative viability (NCI-H1395; first compound 0.08 µM) of 0.934, a relative viability (NCI-H1395; first compound 0.253 µM) of 0.887 and a relative viability (NCI-H1395; first compound 0.8 µM) of 1.07. For the same compound, the relative viability (NCI-H1395; first compound 2.53 µM) was 0.938, the relative viability (NCI-H1395; first compound 8 µM) was 1.09 and the relative viability (NCI-H1993; first compound 0.08 µM) was 0.705. For the same compound, the relative viability (NCI-H1993; first compound 0.253 µM) was 0.796, the relative viability (NCI-H1993; first compound 0.8 µM) was 0.586 and the relative viability (NCI-H1993; first compound 2.53 µM) was 0.75. For the same compound, the relative viability (NCI-H1993; first compound 8 µM) was 0.68, the relative viability (NCI-H2023; first compound 0.08 µM) was 0.688 and the relative viability (NCI-H2023; first compound 0.253 µM) was 0.889. The relative viability (NCI-H2023; first compound 0.8 µM) was 0.965, the relative viability (NCI-H2023; first compound 8 µM) was 0.861 and the relative viability (NCI-H2087; first compound 0.08 µM) was 0.976. The relative viability (NCI-H2087; first compound 0.253 µM) was 1.13, the relative viability (NCI-H2087; first compound 0.8 µM) was 1.3 and the relative viability (NCI-H2087; first compound 2.53 µM) was 1.23. The relative viability (NCI-H2087; first compound 8 µM) was 1.19.
